According to patent US11236068B2, “Fused ring compounds” (Genentech, Inc., priority 2018, dated 2022):

Target: K-Ras G12C (Homo sapiens (Human), UniProt P01116, G12C)
Experiment: Western blot assay for in cell alkylation of K-Ras G12C (HCC1171 cells)
Type: cell-based
Settings: 18 hours at 37° C., 7 point dose response
Description: HCC1171 cells were maintained in RPMI1640 supplemented with 10% FBS. Cells were plated in a 96-well plate at 20,000 cells/well and the following day compounds were added to the cells. After 18 hours at 37° C., cells were lysed in RIPA buffer (Sigma RO278) with 0.5% SDS and protease/phosphatase inhibitor cocktail. After through mixing to enable complete lysis, the lysates were cleared by centrifugation before 20 µl was transferred from each well and combined with loading buffer and reducing agent. After heating for 10 minutes at 95° C., […] of each sample was loaded onto a 4-20% Tris-Glycine gel and electrophoresed at 110V for 165 minutes in SDS-PAGE running buffer. Gels were transferred to a nitrocellulose membrane, blocked for 1 hour and stained overnight at 4° C. with primary antibody against K-Ras (polyclonal Proteintech 12063-1-AP). The membrane was then washed thoroughly and counterstained with anti-rabbit IRDye 800CW (LI-COR 926-32211) for one hour at room temperature. After final washes, the membrane was imaged on a LI-COR Odyssey CLx at medium resolution. […] To quantify this affect, the LICOR software was used to draw a rectangle over alkylated and unalkylated bands for each well and measured the total fluorescent intensity (FI) in each of these bands. The following formula was then used to calculate % alkylation: FI(alkylated)/(FI(alkylated)+FI(unalkylated))*100 for each well.
A 7 point dose response curve was used to determine the IC50 for each compound. Cell alkylation data are presented below in Table 3.

Chain of K-Ras G12C (P01116 other isoform, or with tags, fused parts or gaps G12C): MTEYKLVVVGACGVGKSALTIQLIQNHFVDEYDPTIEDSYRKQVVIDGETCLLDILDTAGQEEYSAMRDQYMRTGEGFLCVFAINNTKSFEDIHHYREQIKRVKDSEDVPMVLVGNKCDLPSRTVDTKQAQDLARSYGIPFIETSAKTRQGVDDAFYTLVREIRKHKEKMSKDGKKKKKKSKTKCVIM

Row | Compound | EC50
1 | C=CC(=O)N1CCN(c2ncnc3cc(-c4ncccc4C)c(Cl)cc23)CC1 [Example 2, 1-[4-[6-chloro-7-(3-methyl-2-pyridyl)quinazolin-4-yl]piperazin-1-yl]prop-2-en-1-one] | 16 µM
2 | C=CC(=O)N1CCN(c2ncnc3cc(-c4nc(N)cc5cccnc45)c(Cl)cc23)CC1 [Example 3, 1-[4-[7-(6-amino-1,7-naphthyridin-8-yl)-6-chloro-quinazolin-4-yl]piperazin-1-yl]prop-2-en-1-one] | 21 µM
3 | C=CC(=O)N1CCN(c2ncnc3cc(-c4nc(N)cc5cnccc45)c(Cl)cc23)CC1 [Example 4, 1-[4-[7-(3-amino-2,6-naphthyridin-1-yl)-6-chloro-quinazolin-4-yl]piperazin-1-yl]prop-2-en-1-one] | > 30 µM
4 | C=CC(=O)N1CCN(c2ncnc3cc(-c4nc(N)cc5c(Cl)cccc45)c(Cl)cc23)CC1 [Example 5, 1-[4-[7-(3-amino-5-chloro-1-isoquinolyl)-6-chloro-quinazolin-4-yl]piperazin-1-yl]prop-2-en-1-one] | 2.8 µM
5 | C=CC(=O)N1CCN(c2ncnc3cc(-c4nc(N)cc5cc(OC)ccc45)c(Cl)cc23)CC1 [Example 6, 1-[4-[7-(3-amino-6-methoxy-1-isoquinolyl)-6-chloro-quinazolin-4-yl]piperazin-1-yl]prop-2-en-1-one] | 10 µM
6 | C=CC(=O)N1CCN(c2ncnc3cc(-c4nc(N)cc(C)c4F)c(Cl)cc23)CC1 [Example 11, 1-(4-(7-(6-amino-3-fluoro-4-methylpyridin-2-yl)-6-chloroquinazolin-4-yl)piperazin-1-yl)prop-2-en-1-one] | 4.7 µM
7 | C=CC(=O)N1CCN(c2nc(NC[C@@H](F)C(C)(C)O)nc3cc(-c4nc(N)cc(C)c4F)c(Cl)cc23)CC1 [Example 12, (R)-1-(4-(7-(6-amino-3-fluoro-4-methylpyridin-2-yl)-6-chloro-2-((2-fluoro-3-hydroxy-3-methylbutyl)amino)quinazolin-4-yl)piperazin-1-yl)prop-2-en-1-one] | 8.1 µM
8 | C=CC(=O)N1CCN(c2ncnc3cc(-c4nc(N)ccc4C)c(Cl)cc23)CC1 [Example 15, 1-(4-(7-(6-amino-3-methylpyridin-2-yl)-6-chloroquinazolin-4-yl)piperazin-1-yl)prop-2-en-1-one] | 2.8 µM
9 | C=CC(=O)N1CCN(c2ncnc3cc(-c4nc(NC(C)=O)ccc4C)c(Cl)cc23)CC1 [Example 16, N-(6-[6-chloro-4-[4-(prop-2-enoyl)piperazin-1-yl]quinazolin-7-yl]-5-methylpyridin-2-yl)acetamide] | 8.2 µM
10 | C=CC(=O)N1CCN(c2ncnc3cc(-c4nc(N)ccc4C(F)(F)F)c(C(C)(F)F)cc23)CC1 [Example 21, 1-(4-(7-(6-amino-3-(trifluoromethyl)pyridin-2-yl)-6-(1,1-difluoroethyl)quinazolin-4-yl)piperazin-1-yl)prop-2-en-1-one] | 2.8 µM

Stronger by EC50, values ahead:

Row | EC50 | Compound
11 | 2.3 µM | C=CC(=O)N1CCN(c2ncnc3cc(-c4nc(N)ccc4C(F)(F)F)c(N4CCC4)cc23)CC1 [Example 20, 1-[4-[7-[6-amino-3-(trifluoromethyl)-2-pyridyl]-6-(azetidin-1-yl)quinazolin-4-yl]piperazin-1-yl]prop-2-en-1-one]
12 | 1.3 µM | C=CC(=O)N1CCN(c2ncnc3cc(-c4nc(N)cc(C)c4C)c(Cl)cc23)CC1 [Example 13, 1-(4-(7-(6-amino-3,4-dimethylpyridin-2-yl)-6-chloroquinazolin-4-yl)piperazin-1-yl)prop-2-en-1-one]
13 | 0.56 µM | C=CC(=O)N1CCN(c2ncnc3cc(-c4nc(N)cc5ccccc45)c(Cl)cc23)CC1 [Example 1, 1-[4-[7-(3-amino-1-isoquinolyl)-6-chloro-quinazolin-4-yl]piperazin-1-yl]prop-2-en-1-one]
14 | 0.4 µM | C=CC(=O)N1CCN(c2ncnc3cc(-c4nc(N)cc(C)c4Cl)c(Cl)cc23)CC1 [Example 14, 1-(4-(7-(6-amino-3-chloro-4-methylpyridin-2-yl)-6-chloroquinazolin-4-yl)piperazin-1-yl)prop-2-en-1-one]
